Patent US12258424B2, “Polypeptides and compositions comprising the same” (priority 2020, dated 2025)
pIC50: −log10 of the molar value. Several values for one entry are separate records, joined by “and”; a condition that tells them apart may be missing. Equal values may be shown once. Residues, ends and D or L forms follow the SMILES beside them.

Legend:
[1] = molecular target: mPD-L1 (Mus musculus, UniProt Q9EP73); assay: Blockade of the mouse PD-1/PD-L1 interaction, mouse PD-L1 protein; format: binding; set-up: purchased G&P Biosciences FCL3502B (PD-L1)
Sequence of mPD-L1 (Q9EP73 19-239 limits assumed): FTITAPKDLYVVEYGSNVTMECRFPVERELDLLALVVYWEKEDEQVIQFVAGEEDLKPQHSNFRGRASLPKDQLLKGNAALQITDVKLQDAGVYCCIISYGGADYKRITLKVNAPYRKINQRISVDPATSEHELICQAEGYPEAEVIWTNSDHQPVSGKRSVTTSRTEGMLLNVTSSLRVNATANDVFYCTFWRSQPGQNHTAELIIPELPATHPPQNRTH
Procedure: Ninety-six-well plates were coated with 100 ng of PD-L1 protein (G&P Biosciences, human PD-L1 ECD, cat #FCL0784B. mouse PD-L1, cat #FCL3502B) and later blocked with 2% BSA for 2 hours at room temperature. Various concentrations of peptides were loaded into the wells and incubated for 1 hour at room temperature. […] Streptavidin-HRP (R & D systems) and chromogenic substrate were added into the wells. OD450 was then recorded and referenced to OD540.

[2] = test system: IFNγ, PD-L1 and IL-6 in CT26 tumors; assay: ELISA of IFNγ, PD-L1 and IL-6 in harvested CT26 tumors; format: in vivo, mouse
Source text: (§1) Animal Study. The animal protocol was approved by the University of Missouri-Kansas City, Institutional Animal Care and Use Committee (IACUC). Five-week old male and female Balb/c mice were purchased from Charles Rivers Laboratories (Wilmington, Mass.) and housed in a temperature and humidity controlled room on a 12-hour light-dark cycle. Approximately 5×10^5 CT26 cells were subcutaneously injected into the right flank. The mice were randomly divided into five different groups (10 mice/group, 50% female, 50% male). The mice were intraperitoneally injected with 2 mg/kg peptide daily when the tumor size reached 50-100 mm^3. The anti-mouse PD-L1 antibody (10F.9G2, BioXcell) was administrated as a positive control at a dose of 10 mg/kg every two days. The tumor size was assessed with a caliper and calculated with the formula 0.5×length×width^2. ELISA kits of PD-L1 (Cat #DY1019-05), IFNγ (Cat #DY485-05), and IL-6 (Cat #DY406-05) were used to measure the expressions of PD-L1, IFNγ, and IL-6, respectively, in tumors as per the company's instructions (R & D Systems, Minneapolis, MN).

[3] = test system: 4T1 cancer cell; format: cell-based, mouse
[4] = test system: Jurkat T cells co-cultured with DU-145 cancer cells; assay: Jurkat T cell proliferation in co-culture with DU-145 cells (CellTiter-Glo); format: cell-based, human; conditions: peptide 5 μM, 24 hours
Procedure: Proliferation and Apoptosis Assays. […] Briefly, 3×10^4 Jurkat T cells were cultured alone or co-cultured with 1.5×10^5 DU-145 cancer cells in a 24-well plate for the proliferation assay. For the apoptosis assay, 6×10^4 Jurkat T cells were cultured alone or co-cultured with 3×10^5 DU-145 cancer cells in a 6-well plate. After incubation with the anti-PD-L1 peptides (5 μM) or anti-PD-L1 antibody (1 μM) for 24 hours, Jurkat T cells were harvested from the supernatant. Proliferation of Jurkat cells was determined using the CellTiter-Glo luminescent cell viability assay (Promega, WI), and apoptosis of the cells were determined using the Dead Cell Apoptosis Kit with Annexin V Alexa Fluor® 488 and Propidium Iodide (Thermo-Fisher Scientific, Pittsburgh, PA) as we described before^21.

[5] = test system: CT26 tumor-bearing Balb/C mice; assay: Survival of CT26 tumor-bearing Balb/C mice; format: in vivo, mouse
Source text: as §1
In this Example, mice were intraperitoneally injected with the CLP002 (SEQ ID NO:2) and CLP003 (SEQ ID NO:3) peptides daily or the anti-mouse PD-L1 antibody every other day from day 4 to day 17 (see survival curves in FIG. 7a). Specifically, CT26 tumor-bearing Balb/C mice (n=10, 5 male and 5 female) were intraperitoneally injected with the anti-PD-L1 peptides (2 mg/Kg) daily and the anti-mouse PD-L1 antibody (10 mg/Kg) every other day from day 4 to day 17. GraphPad Prism 7 software (San Diego, Calif.) was used for statistical analysis. Comparison of two survival curves were conducted using the Gehan-Breslow-Wilcoxon test. […] By contrast, only 20% of the mice in the CLP002 (SEQ ID NO:2) group were dead by day 17.

[6] = molecular target: human PD-L1/CD80 interaction (Homo sapiens, UniProt Q9NZQ7); assay: Blockade of the CD80/PD-L1 interaction; format: binding; conditions: at 10 μM, FIG. 8a
Sequence of human PD-L1/CD80 interaction (Q9NZQ7 19-238 limits assumed): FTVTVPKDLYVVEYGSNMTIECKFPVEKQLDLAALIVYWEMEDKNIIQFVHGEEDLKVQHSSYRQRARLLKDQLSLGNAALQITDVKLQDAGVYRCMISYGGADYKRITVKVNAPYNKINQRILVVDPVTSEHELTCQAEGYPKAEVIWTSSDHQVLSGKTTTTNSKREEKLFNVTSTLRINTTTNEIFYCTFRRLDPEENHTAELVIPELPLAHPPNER

[7] = test system: 3D tumor spheroids of MDA-MB-231 cells; assay: 3D tumor spheroid penetration assay; format: cell-based, human; conditions: Cy5-labeled, 2 and 6 hours
Procedure: 3D Tumor Spheroid Penetration Assay. 3D spheroids of MDA-MB-231 cells were generated using the Spheroid Formation Extracellular Matrix (ECM) as per the company's protocol (Amsbio, Cambridge, MA). Briefly, 3,000 tumor cells were mixed with 50 μL Spheroid Formation ECM and loaded into a Corning™ 96-well Ultra-low Attachment Treated Spheroid Microplate (Corning, Pittsburgh, PA). The plate was centrifuged at 200 g for 3 min at 4° C. The cells were then incubated at 37° C. until the diameter reached approximately 700 μm. The Cy5-labeled CLP002 peptide and anti-PD-L1 antibody were incubated with the spheroids for 2 or 6 hours. After washing, penetration of the peptide and antibody inside the tumor spheroids was determined using confocal microscopy.

[8] = test system: CD8+ T cells in CT26 tumor tissues; assay: IHC staining of CD8+ T cells in CT26 tumor tissues; format: in vivo, mouse
Procedure: Immunohistochemistry (IHC) Staining. Tumor tissues were fixed in 10% formalin, embedded in paraffin, sectioned, and mounted on glass slides by Truman Medical Centers Anatomic Pathology Core (Kansas City, MO). The slides were heated in Tris buffer (pH 9.0) for 45 min to recover antigen. After deparaffinization and rehydration, the sections were stained with the anti-mouse CD8 alpha antibody (Abcam, ab209775) overnight at 4° C. The slides were incubated with a biotinylated goat anti-rabbit secondary antibody, followed by the DAB chromogen mixture. Four sections (2 male and 2 female) were imaged in each group. For each section, 3 regions were randomly selected for imaging.

Compound: CC(C)C[C@H](NC(=O)[C@H](CC(N)=O)NC(=O)[C@H](Cc1c[nH]c2ccccc12)NC(=O)[C@@H](NC(=O)[C@H](Cc1ccc(O)cc1)NC(=O)[C@H](Cc1ccc(O)cc1)NC(=O)[C@H](CO)NC(=O)[C@H](CCCNC(=N)N)NC(=O)[C@H](Cc1c[nH]cn1)NC(=O)[C@@H](N)Cc1c[nH]c2ccccc12)[C@@H](C)O)C(=O)N[C@@H](CC(N)=O)C(=O)N[C@H](C(=O)O)[C@@H](C)O [CLP002] (H-WHRSYYTWNLNT-OH; N-terminus and C-terminus assumed)
- Blocking efficiency against mouse PD-1/PD-L1 interaction ([1]; at 10 μM, FIG. 2f): 71%
- Blocking Efficiency (%) ([1]; mouse PD-L1 protein): 71% and 68%
- pIC50 ([1]; mouse PD-L1 protein): 5.72
- IL-6 expression in tumor tissues [2]: decreased expression of IL-6
- Blocking Efficiency (%) ([3]; 4T1 cancer cell): 61%
- pIC50 ([3]; 2 h): 5.61
- Effect on Jurkat T cell proliferation [4]: restored Jurkat T cell proliferation
- Tumor growth in the survival study ([5]; Example 7, individual growth curves): inhibited tumor growth
- Mice showing a response to treatment (in words) ([5]; n=10): Eight mice showed a response
- Mice dead by day 17 ([5]; n=10, saline group 90%): 20%
- Survival of tumor-bearing mice ([5]; treatment from day 4 to day 17): improved the survival
- Blocking efficiency against CD80/PD-L1 interaction [6]: ~48%
- Tumor spheroid penetration (in words) ([7]; confocal microscopy): better tumor penetration than the antibody
- Depth of penetration from the periphery of the spheroids ([7]; spheroids ~700 μm): approximately 250 μm
- Density of CD8+ T cells in tumor tissues [8]: significantly increased
- Location of CD8+ T cells in the tumor [8]: penetration of CD8^+ T cells into the tumor tissue
